Reference: patent publication US20160061919A1, “IMAGING OF CREATINE KINASE ENZYME EXPRESSION IN CANCEROUS TISSUES” (Sidra Medical and Research Center, priority 2014, published 2016)

Columns and labels:
[1] = test system: CK enzyme expressed in the tumor; assay: in vivo imaging of creatine kinase expression by monitoring conversion of PCr to Cr through CEST; details: 60 minutes following tail vein injection of PCr, versus base line CEST map, FIG. 3
Description: (§1) In certain embodiments, the radio frequency (RF) pulse can be provided at different frequency offsets. In certain embodiments, to detect the conversion of phosphocreatine to creatine, an RF pulse was applied at a frequency offset of about 1.8 ppm for a period of about 1 to about 3 seconds.
“b” is the base line CEST map from the same slice. “c” is a CEST map of the same slice at 60 minutes following tail vein injection of PCr.

[2] = test system: creatine kinase (CK) expression in cancer cells; assay: CEST imaging of cancer cells cultured with PCr; format: cell-based; details: cancer cell line cultured with PCr for 1 hour; FIG. 2
Description: as §1
The creatine kinase (CK) expression in cancer cells cleaves the PCr into creatine (Cr), and can be responsible for the increase in CEST contrast from creatine amine protons.

CN(CC(=O)O)C(=N)NP(=O)(O)O [PCr, phosphocreatine]
increase in CEST contrast [1]: about 11%
elevation of the CEST contrast over cancer cells without PCr [2]: about 16%
